Laboratory results as given in patent US6440901B1, “Calcium chloride fruit blossom thinning agent” (priority 2000, dated 2002).

Key:
[1] = test system: “Lutz” Red Delicious Apples; conditions: for Mean Fruit Area per Limb: Azwell; for Mean Fruit per 100 Clusters: fruit set
Procedure: A second field trial to test the effects of calcium chloride as a bloom thinning agent was performed at an orchard located in Azwell, Washington, by the Washington Tree Fruit Research Commission on a commercial block of a Red Delicious apple cultivar of the variety “Lutz.” Three areas of the block's apples were each treated with one of three alternative chemical thinning compounds. […] Calcium chloride was used in the second area and “Crocker's” lime and sulfur was used in the third area. A fourth area of the apple block was utilized as a control group and treated with water as a control. The treatments were all performed with conventional test methodologies and procedures. Other than the application of the thinning compounds, all four blocks were managed without differentiation.

“WVC” Fuji Apples = conditions: for Mean Fruit Area per Limb: East Wenatchee, airblast spray at bloom; for Mean Fruit per 100 Clusters: fruit set
Procedure: A first field trial to test the effects of calcium chloride as a bloom thinning agent was performed in an orchard located in East Wenatchee, Washington, by the Washington Tree Fruit Research Commission on a commercial block of a Fuji apple cultivar of the variety “WVC.” Two areas of the block's apples were each treated with two alternative chemical thinning compounds. Calcium chloride was used in the first area. […] A third area of the apple block was utilized as a control group and treated with water. The treatments were all performed with conventional test methodologies and procedures.
Other than the application of the thinning compounds, all three blocks were managed without differentiation. All treatments were applied utilizing standard airblast sprayers and spreader-stickers as appropriate. The experiments were in a randomized complete block design with 2 to 4 replications. […] Results of this trial are listed in TABLE 1 and shown in the graphs of FIGS. 1 and 3.

apples = test: Overall observations of both field trials (damage, thinning, fruit L/D); assay type: in vivo, apple
Procedure: A series of field trials comparing the calcium chloride composition of the present invention to other alternative chemical thinners were performed to verify efficacy as a bloom thinner. The trials followed labeling recommendations and best management practices for all applications. Two of these trials are discussed as follows, but are not intended to specifically limit the invention: […]

Compound | % Flower Clusters Blanked [1] [%] | % Flower Clusters Doubled [1] [%] | % Flower Clusters Singled [1] [%] | % Flower Clusters Tripled [1] [%] | % Flower Clusters w/4+ Fruit [1] [%] | Mean Fruit Area per Limb [1] [cm^2] | Mean Fruit per 100 Clusters [1] | % Flower Clusters Blanked (“WVC” Fuji Apples) [%] | % Flower Clusters Doubled (“WVC” Fuji Apples) [%] | % Flower Clusters Singled (“WVC” Fuji Apples) [%] | % Flower Clusters Tripled (“WVC” Fuji Apples) [%] | % Flower Clusters w/4+ Fruit (“WVC” Fuji Apples) [%] | Mean Fruit Area per Limb (“WVC” Fuji Apples) [cm^2] | Mean Fruit per 100 Clusters (“WVC” Fuji Apples) | impact on average fruit length over diameter (L/D) ratio (apples; harvested fruit) | difference in bloom thinning between treatments (apples; with feedback on hand thinning time per tree, ATS versus calcium chloride)
[Ca+2].[Cl-].[Cl-] [CaCl, calcium chloride] | 41.7 | 12.7 | 44.4 | 1.0 | 0.2 | 2.6 | 73 | 40.0 | 12.5 | 45.5 | 2.0 | 0.1 | 5.0 | 79 | minimally impacted | no consistent, significant differences between ATS and calcium chloride
ammonium thiosulfate [ATS, reference compound] | 47.0 | 12.8 | 38.8 | 1.5 | 0.0 | 2.7 | 69 | 38.2 | 11.9 | 47.4 | 1.9 | 0.7 | 5.8 | 84 |  | 
